For orientation: Emax means the size of the effect at its maximum, as opposed to the concentration needed. The term EC50 denotes the concentration needed to bring the measured effect to its halfway point.

This test addresses T1, mAChR M1 (UniProt P11229).
T1 sequence (P11229 1-460): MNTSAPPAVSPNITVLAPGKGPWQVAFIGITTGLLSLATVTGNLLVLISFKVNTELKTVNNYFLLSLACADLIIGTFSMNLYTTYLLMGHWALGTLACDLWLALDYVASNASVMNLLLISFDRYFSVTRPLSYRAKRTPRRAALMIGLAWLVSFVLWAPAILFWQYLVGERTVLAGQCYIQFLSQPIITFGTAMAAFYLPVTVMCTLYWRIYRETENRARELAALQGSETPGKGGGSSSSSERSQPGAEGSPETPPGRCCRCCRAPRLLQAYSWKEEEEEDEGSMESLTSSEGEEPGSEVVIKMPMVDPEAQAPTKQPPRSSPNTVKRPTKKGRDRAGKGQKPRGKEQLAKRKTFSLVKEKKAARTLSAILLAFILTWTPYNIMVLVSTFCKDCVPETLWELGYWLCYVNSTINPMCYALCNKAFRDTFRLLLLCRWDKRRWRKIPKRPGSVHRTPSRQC
Nature of the test: mAChR M1 cell-based functional assay (calcium mobilization, potentiation of EC20 acetylcholine response). Conditions: for Emax: % ACh maximum at 30 μM; for EC50: CHO-K1 cells expressing mAChR M1, increase in EC20 acetylcholine response, >10 μM estimated where no plateau in the curve. How it is done:
Chinese hamster ovary (CHO-K1) cells stably expressing rat (r)M1 were purchased from the American Type Culture Collection and cultured according to their indicated protocol. […] To make stable rM2, hM2, rM3, hM4, and rM4 cell lines for use in calcium mobilization assays, these cells also were stably transfected with a chimeric G-protein (Gqi5) (provided by B. R. Conklin, University of California, San Francisco) using Lipofectamine 2000. rM1, hM1, rM3, hM3, rM5, and hM5 cells were grown in Ham's F-12 medium containing 10% heat-inactivated fetal bovine serum (FBS), 20 mM HEPES, and 50 μg/mL G418 sulfate. rM2-Gqi5, hM2-Gqi5, and hM4-Gqi5 cells were grown in the same medium also containing 500 μg/mL Hygromycin B. Stable rM4-Gqi5 cells were grown in DMEM containing 10% heat-inactivated FBS, 20 mM HEPES, 400 μg/mL G418 sulfate, and 500 μg/mL Hygromycin B.
For high throughput measurement of agonist-evoked increases in intracellular calcium, CHO-K1 cells stably expressing muscarinic receptors were plated in growth medium lacking G418 and hygromycin at 15,000 cells/20 μL/well in Greiner 384-well black-walled, tissue culture (TC)-treated, clear-bottom plates (VWR). Cells were incubated overnight at 37° C. and 5% CO2. […] Compound master plates were formatted in an 11 point CRC format (1:3 dilutions) in 100% DMSO with a starting concentration of 10 mM using the BRAVO liquid handler (Agilent). Test compound CRCs were then transferred to daughter plates ([…]) using the Echo acoustic plate reformatter (Labcyte, Sunnyvale, Calif.) and then diluted into assay buffer (40 μL) to a 2× stock using a Thermo Fisher Combi (Thermo Fisher Scientific, Waltham, Mass.).
Calcium flux was measured using the Functional Drug Screening System (FDSS) 6000 (Hamamatsu Corporation, Tokyo, Japan) as an increase in the fluorescent static ratio. Compounds were applied to cells (20 μL, 2×) using the automated system of the FDSS 6000 at 4 s into the 300 s protocol and the data were collected at 1 Hz. […] Agonist activity was analyzed as a concentration-dependent increase in calcium mobilization upon compound addition. Positive allosteric modulator activity was analyzed as a concentration-dependent increase in the EC20 acetylcholine response. Antagonist activity was analyzed as a concentration-dependent decrease in the EC80 acetylcholine response. Concentration-response curves were generated using a four-parameter logistical equation in XLfit curve fitting software (IDBS, Bridgewater, N.J.) for Excel (Microsoft, Redmond, Wash.) or Prism (GraphPad Software, Inc., San Diego, Calif.).
The calcium mobilization assay was also used to determine “efficacy”. In the context of the assays carried out for the data in Table II, “efficacy” (% ACh at 30 μM) is defined as the maximal response in the calcium flux as determined by the sigmoidal curve fit of the concentration response curve, or in the absence of an acceptable curve fit, the response recorded at 30 μM test compound, stated as a percentage of the response elicited by a concentration of Ach that induces approximately 80% of a maximal (i.e. saturating) ACh response.
Substituted benzylspiroindolin-2-one analogs were synthesized as described above. Activity (EC50 and Emax) was determined in the mAChR M1 cell-based functional assay as described above and the data are shown in Table III. The compound number corresponds to the compound numbers used in Tables I and II.

With `CC(=O)N1CCC2(C1)C(=O)N(Cc1ccc(-c3cnn(C)c3)cc1F)c1ccccc12` (centres unmarked) [Compound B63, 1′-acetyl-1-(2-fluoro-4-(1-methyl-1H-pyrazol-4-yl)benzyl)spiro[indoline-3,3′-pyrrolidin]-2-one], the Emax is on record as 54% and the EC50 is over 10 µM.
In the same order, the values of `CN1CCCC12C(=O)N(Cc1ccc(-c3cnn(C)c3)cc1)c1ccccc12` (centres unmarked) [Compound B64, 1′-methyl-1-(4-(1-methyl-1H-pyrazol-4-yl)benzyl)spiro[indoline-3,2′-pyrrolidin]-2-one] are 48% and over 10 µM.
For `Cn1cc(-c2ccc(CN3C(=O)C4(CCN(S(C)(=O)=O)C4)c4ccccc43)c(F)c2)cn1` (centres unmarked) [Compound B65, 1-(2-fluoro-4-(1-methyl-1H-pyrazol-4-yl)benzyl)-1′-(methylsulfonyl)spiro[indoline-3,3′-pyrrolidin]-2-one], in that order: 35% and over 10 µM.
For `Cn1cc(-c2ccc(CN3C(=O)C4(CCN(C5CCC5)CC4)c4ccccc43)c(F)c2)cn1` [Compound B66], in that order: 32% and over 10 µM.
On to `Cn1cc(-c2ccc(CN3C(=O)C4(CCN(C5CCOCC5)CC4)c4ccccc43)c(F)c2)cn1` [Compound B69], for which the maximal response (Emax) is recorded as 41% and the half-maximal effective concentration (EC50) was over 10 µM.
In the same order, the values of `Cn1cc(-c2ccc(CN3C(=O)C4(CCN(C5CCOC5)CC4)c4ccccc43)c(F)c2)cn1` (centres unmarked) [Compound B71] are 36% and over 10 µM.
In the same order, the values of `Cn1cc2c(-c3cc(F)c(CN4C(=O)C5(CCNC5)c5ccccc54)c(F)c3)cccc2n1` (centres unmarked) [Compound B74] are 69% and 7.2 µM.
In the same order, the values of `CN1CCC2(C1)C(=O)N(Cc1c(F)cc(-c3cccc4nn(C)cc34)cc1F)c1ccccc12` (centres unmarked) [Compound B75] are 66% and 5.4 µM.
Take `Cn1cc2c(-c3cc(F)c(CN4C(=O)C5(CCN(C(=O)OC(C)(C)C)C5)c5ccccc54)c(F)c3)cccc2n1` (centres unmarked) [Compound B76]: the maximal response (Emax) is reported as under 30% and the EC50 is over 10 µM.
Regarding `CN1CCC2(CC1)C(=O)N(Cc1c(F)cc(-c3ccc4nn(C)cc4c3)cc1F)c1ccccc12` [Compound B77], the Emax was 26% and the EC50 is over 10 µM.
In the same order, the values of `CN1CCC2(CC1)C(=O)N(Cc1c(F)cc(-c3ccc4c(c3)CC(=O)N4)cc1F)c1ccccc12` [Compound B78] are 38% and 6.6 µM.
For `CN1CCC2(CC1)C(=O)N(Cc1c(F)cc(-c3cccc4nn(C)cc34)cc1F)c1ccccc12` [Compound B79], in that order: under 30% and over 10 µM.
For `CN1CCCC12C(=O)N(Cc1c(F)cc(-c3cccc4nn(C)cc34)cc1F)c1ccccc12` (centres unmarked) [Compound B80], in that order: under 30% and over 10 µM.

The values above are taken from patent publication US9073935B2, “Substituted benzylspiroindolin-2-one analogs as positive allosteric modulators of the muscarinic acetylcholine receptor M1” (VANDERBILT UNIVERSITY, priority 2011, dated 2015).
